Data reported in ChEMBL document CHEMBL5390269, “Synthesis, anti-inflammatory activity, and conformational relationship studies of chromone derivatives incorporating amide groups” (Bioorg Med Chem Lett, 2023).
pEC50, pIC50: −log10 of the molar value.

Key:
RAW264.7 = experiment: Anti-inflammatory activity in mouse RAW264.7 cells assessed as inhibition of LPS-stimulated NO production; type: functional, cell-based
Interleukin-5 = molecular target: T1, Interleukin-5 (Homo sapiens, UniProt P05113); experiment: Inhibition of IL-5 (unknown origin)
T1 sequence (P05113 whole entry): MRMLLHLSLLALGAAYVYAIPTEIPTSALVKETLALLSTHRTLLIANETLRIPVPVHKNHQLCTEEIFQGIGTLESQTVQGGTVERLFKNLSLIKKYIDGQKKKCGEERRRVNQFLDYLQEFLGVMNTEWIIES

[1] = molecular target: T2, Prostaglandin G/H synthase 2 (Homo sapiens, UniProt P35354); experiment: Inhibition of COX-2 (unknown origin)
T2 sequence (P35354 whole entry): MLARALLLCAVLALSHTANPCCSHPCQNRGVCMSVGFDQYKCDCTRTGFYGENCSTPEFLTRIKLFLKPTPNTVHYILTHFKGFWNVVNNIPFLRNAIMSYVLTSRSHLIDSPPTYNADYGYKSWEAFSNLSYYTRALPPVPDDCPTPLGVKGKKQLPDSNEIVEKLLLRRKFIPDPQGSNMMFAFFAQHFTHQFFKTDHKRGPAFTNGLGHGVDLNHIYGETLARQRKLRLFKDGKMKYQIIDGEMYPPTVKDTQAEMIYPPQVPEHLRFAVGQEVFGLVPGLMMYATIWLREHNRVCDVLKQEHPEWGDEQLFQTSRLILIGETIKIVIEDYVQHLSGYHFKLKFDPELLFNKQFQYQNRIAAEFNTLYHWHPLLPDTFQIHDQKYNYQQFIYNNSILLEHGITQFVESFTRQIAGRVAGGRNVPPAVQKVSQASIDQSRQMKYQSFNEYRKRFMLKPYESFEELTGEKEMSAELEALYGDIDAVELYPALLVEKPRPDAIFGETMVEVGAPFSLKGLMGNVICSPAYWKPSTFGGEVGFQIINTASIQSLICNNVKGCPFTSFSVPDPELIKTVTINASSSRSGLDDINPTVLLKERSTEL

[2] = Cytotoxicity against mouse RAW264.7 cells assessed as cell growth inhibition by CCK-8 colorimetric assay; type: toxicity, cell-based

Row | pEC50 (RAW264.7) | SMILES | other results
1 | 4.50 | Cc1ccc(NC(=O)c2cc(=O)c3ccccc3o2)cc1C | 
2 | 4.34 | Cc1ccc(Cl)cc1NC(=O)c1cc(=O)c2ccccc2o1 | 
3 | 3.09 | Cc1ccc(NC(=O)c2cc(=O)c3ccc(Br)cc3o2)cc1C | 
4 | 4.06 | COc1ccc2c(=O)cc(C(=O)Nc3ccc(Cl)c(C(F)(F)F)c3)oc2c1 | 
5 | 4.39 | Cc1ccc2oc(C(=O)Nc3ccc(Cl)c(Cl)c3)cc(=O)c2c1 | 
6 | 4.39 | Cc1ccc2oc(C(=O)Nc3ccc(F)c(F)c3)cc(=O)c2c1 | 
7 | 4.49 | COc1cc(OC)c2c(=O)cc(C(=O)Nc3ccc(Cl)c(Cl)c3)oc2c1 | 
8 | 4.04 | O=C(Nc1ccc(F)c(F)c1)c1cc(=O)c2ccccc2o1 | 
9 | 4.96 | COc1ccc2c(=O)cc(C(=O)Nc3ccc(Cl)c(F)c3)oc2c1 | 
10 | 4.34 | COc1ccc2c(=O)cc(C(=O)Nc3ccc(C)c(Cl)c3)oc2c1 | 
11 | 4.39 | Cc1ccc2oc(C(=O)Nc3cc(Cl)ccc3C)cc(=O)c2c1 | pIC50 [2]: 4.42
12 | 4.42 | Cc1ccc(NC(=O)c2cc(=O)c3ccc(Br)cc3o2)cc1Cl | 
13 | 4.08 | COc1cccc2oc(C(=O)Nc3ccc(Cl)c(F)c3)cc(=O)c12 | 
14 | 3.86 | O=C(Nc1ccc(F)c(F)c1)c1cc(=O)c2ccc(Br)cc2o1 | 
15 | 3.68 | COc1cccc2oc(C(=O)Nc3ccc(F)c(F)c3)cc(=O)c12 | 
16 | 4.10 | Cc1ccc2oc(C(=O)Nc3ccc(C)c(Cl)c3)cc(=O)c2c1 | 
17 | 3.94 | COc1cc(OC)c2c(=O)cc(C(=O)Nc3ccc(C)c(Cl)c3)oc2c1 | pIC50 [2]: 4.32
18 | 4.52 | Cc1ccc(NC(=O)c2cc(=O)c3ccccc3o2)cc1Cl | 
19 | 4.09 | COc1ccc2c(=O)cc(C(=O)Nc3ccc(Cl)c(Cl)c3)oc2c1 | 
20 | 4.39 | Cc1ccc2oc(C(=O)Nc3ccc(Cl)c(C(F)(F)F)c3)cc(=O)c2c1 | 

Further lines, the compound ahead of its results:

Row | SMILES | pEC50 (RAW264.7) | other results
21 | COc1ccc(NC(=O)c2cc(=O)c3ccccc3o2)cc1 | 4.38 | 
22 | O=C(Nc1ccc(C(F)(F)F)cc1)c1cc(=O)c2ccccc2o1 | < 3.00 | 
23 | O=c1c(CCC(O)c2ccc(O)cc2)coc2cccc(OCC3CCCCC3)c12 (stereo unspecified) |  | pIC50 (Interleukin-5): 5.40
24 | O=C1Nc2ccccc2/C1=C/c1coc2ccccc2c1=O |  | pIC50 [1]: 7.70
25 | COc1ccc(NC(=O)c2cc(=O)c3ccc(Br)cc3o2)cc1 | 3.76 | 
26 | COc1cc(OC)c2c(=O)cc(C(=O)Nc3ccc(C(F)(F)F)cc3)oc2c1 | 4.50 | 
27 | O=C(Nc1ccc(Br)cc1)c1cc(=O)c2ccccc2o1 | 4.39 | pIC50 [2]: 4.61
28 | COc1ccc2c(=O)cc(C(=O)Nc3ccccc3C)oc2c1 | 5.27 | pIC50 [2]: 3.09
29 | COc1cc(OC)c2c(=O)cc(C(=O)Nc3cc(Cl)ccc3C)oc2c1 | 4.73 | 
30 | CCOc1ccc(NC(=O)c2cc(=O)c3ccccc3o2)cc1 | < 3.00 | 
31 | COc1cccc2oc(C(=O)Nc3cc(Cl)ccc3C)cc(=O)c12 |  | pIC50 [2]: 4.32
32 | COc1cccc2oc(C(=O)Nc3ccc(Br)cc3)cc(=O)c12 | 3.42 | 
33 | COc1ccc2c(=O)cc(C(=O)Nc3ccc(Br)cc3)oc2c1 | 4.05 | 
34 | COc1cccc2oc(C(=O)Nc3ccc(C(F)(F)F)cc3)cc(=O)c12 | 3.76 | 
35 | COc1cccc2oc(C(=O)Nc3ccc(Cl)c(C(F)(F)F)c3)cc(=O)c12 | 3.35 | 
36 | COc1ccc(NC(=O)c2cc(=O)c3c(OC)cc(OC)cc3o2)cc1 | 4.67 | 
37 | COc1ccc(NC(=O)c2cc(=O)c3c(OC)cccc3o2)cc1 | 3.72 | 
38 | O=C(Nc1ccc(Br)cc1)c1cc(=O)c2ccc(Br)cc2o1 | 4.30 | 
39 | O=C(Nc1ccc(C(F)(F)F)cc1)c1cc(=O)c2ccc(Br)cc2o1 | 3.78 | pIC50 [2]: 3.49
40 | CC(C)Cc1ccc(C(C)C(=O)O)cc1 (stereo unspecified) [IBUPROFEN] | 4.57 | pIC50 [2]: < 3.00
